Results published in article PMC9133015 (Nature Communications, 2022).
Several values for one entry are separate records, joined by “and”; a condition that tells them apart may be missing. Equal entries are not always repeated. Where two headings read alike, the source gives them in different places.

Biological target: T1, DYRK2 (Homo sapiens, UniProt Q92630)
T1 construct: purchased Reaction Biology Corporation (assay service)
T1 sequence (Q92630 1-601): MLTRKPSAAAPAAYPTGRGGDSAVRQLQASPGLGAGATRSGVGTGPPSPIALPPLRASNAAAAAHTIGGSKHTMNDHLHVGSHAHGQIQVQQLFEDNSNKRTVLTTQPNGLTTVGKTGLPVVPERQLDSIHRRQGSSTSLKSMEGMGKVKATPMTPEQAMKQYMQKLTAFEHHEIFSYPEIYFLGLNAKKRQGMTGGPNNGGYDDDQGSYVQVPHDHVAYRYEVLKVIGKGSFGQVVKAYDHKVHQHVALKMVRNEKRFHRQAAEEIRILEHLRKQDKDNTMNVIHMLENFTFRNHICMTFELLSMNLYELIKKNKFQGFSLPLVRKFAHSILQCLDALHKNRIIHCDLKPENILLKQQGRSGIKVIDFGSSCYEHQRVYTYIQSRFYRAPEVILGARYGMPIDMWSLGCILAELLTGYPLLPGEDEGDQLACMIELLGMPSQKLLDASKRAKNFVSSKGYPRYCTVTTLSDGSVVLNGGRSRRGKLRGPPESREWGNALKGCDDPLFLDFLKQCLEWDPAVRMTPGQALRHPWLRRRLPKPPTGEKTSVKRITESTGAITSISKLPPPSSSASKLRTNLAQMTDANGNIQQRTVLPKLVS
Test: DYRKs kinase activity assay (33P-ATP, DYRKtide substrate): DYRK2
Format: biochemical

[1] = DYRK2 kinase, Conc. 0.000508053 µM, duplicate values
[2] = DYRK2 kinase, Conc. 0.00152416 µM, duplicate values
[3] = DYRK2 kinase, Conc. 0.00457247 µM, duplicate values
[4] = DYRK2 kinase, Conc. 0.0137174 µM, duplicate values
[5] = DYRK2 kinase, Conc. 0.0137174 µM, duplicate values, read-out: % Inhibition
[6] = DYRK2 kinase, Conc. 0.0411523 µM, duplicate values
[7] = DYRK2 kinase, Conc. 0.0411523 µM, duplicate values, read-out: % Inhibition
[8] = DYRK2 kinase, Conc. 0.123457 µM, duplicate values
[9] = DYRK2 kinase, Conc. 0.123457 µM, duplicate values, read-out: % Inhibition
[10] = DYRK2 kinase, Conc. 0.37037 µM, duplicate values, read-out: % Inhibition
[11] = DYRK2 kinase, Conc. 1.11111 µM, duplicate values, read-out: % Inhibition
[12] = DYRK2 kinase, Conc. 3.33333 µM, duplicate values, read-out: % Inhibition
[13] = DYRK2 kinase, Conc. 10 µM, duplicate values, read-out: % Inhibition
[14] = DYRK2 kinase, Conc. 0.37037 µM, duplicate values
[15] = DYRK2 kinase, Conc. 1.11111 µM, duplicate values
[16] = DYRK2 kinase, Conc. 3.33333 µM, duplicate values
[17] = DYRK2 kinase, Conc. 10 µM, duplicate values
[18] = Supplementary Table 1, read-out: IC50 (μM), DYRK2 kinase

CCN1CCN(C(=O)c2ccc(Nc3ncc(F)c(-c4ccc5nc(C)sc5c4)n3)nc2)CC1 [Compound 23]
% Inhibition [1]: 9.47%
inhibition at 0.000508053 µM [1]: 9.2%
% Inhibition [2]: 18.47%
inhibition at 0.00152416 µM (DYRK2 kinase, Conc. 0.00152416 µM, duplicate values, read-out: % Inhibition): 20.2%
% Inhibition [3]: 32.91%
inhibition at 0.00457247 µM [3]: 32.2%
% Inhibition [4]: 41.99%
inhibition at 0.0137174 µM [5]: 41.4%
% Inhibition [6]: 56.16%
inhibition at 0.0411523 µM [7]: 55.9%
% Inhibition [8]: 70.45%
inhibition at 0.123457 µM [9]: 70.4%
inhibition at 0.37037 µM [10]: 84.9%
inhibition at 1.11111 µM [11]: 92.2%
inhibition at 3.33333 µM [12]: 95.8%
inhibition at 10 µM [13]: 96.2%
IC50 (read-out: DYRK2 IC50): 0.022 µM

Cc1ccccc1C1C=C(c2ccccc2)OC(c2ccccc2)=C1C=NCCc1c[nH]c2ccccc12 (stereo not drawn) [Compound 2]
% Inhibition [1]: -5.36% and -2.56%
% Inhibition [2]: -6.00% and -8.80%
% Inhibition [3]: -4.71% and -7.51%
% Inhibition [4]: 3.44% and 4.28%
% Inhibition [6]: 3.20% and 5.16%
% Inhibition [8]: 5.94% and 3.15%
% Inhibition [14]: 4.61% and 6.29%
% Inhibition [15]: 5.16% and 2.64%
% Inhibition [16]: 1.41% and 4.21%
% Inhibition [17]: 9.74% and 12.54%
IC50 [18]: > 10 µM

CCOC(=O)CC1=NN(c2ccccc2)C(=O)C1=c1sc(=C2Sc3ccccc3N2C)c(=O)n1CC [Compound 6]
% Inhibition [1]: -4.08% and 2.50%
% Inhibition [2]: 1.60% and 6.11%
% Inhibition [3]: 3.31% and 7.66%
% Inhibition [4]: 5.42% and 7.24%
% Inhibition [6]: -2.71% and 2.20%
% Inhibition [8]: 2.56% and 6.98%
% Inhibition [14]: 3.14% and 5.17%
% Inhibition [15]: -1.20% and 3.57%
% Inhibition [16]: 2.35% and 4.46%
% Inhibition [17]: 7.66% and 11.60%
IC50 [18]: > 10 µM

CC(C)(C)OC(=O)N1CCN(Cc2ccc(Nc3ncc(F)c(-c4ccc5ncsc5c4)n3)nc2)CC1 [Compound 17]
% Inhibition [1]: -1.98% and -2.03%
% Inhibition [2]: -0.44% and -0.45%
% Inhibition [3]: -0.11% and -0.23%
% Inhibition [4]: 0.54%
inhibition at 0.0137174 µM [5]: 0.53%
% Inhibition [6]: 9.25%
inhibition at 0.0411523 µM [7]: 8.33%
% Inhibition [8]: 18.48%
inhibition at 0.123457 µM [9]: 18.1%
% Inhibition [14]: 37.11%
inhibition at 0.37037 µM [10]: 36.6%
% Inhibition [15]: 48.09%
inhibition at 1.11111 µM [11]: 47%
% Inhibition [16]: 58.92%
inhibition at 3.33333 µM [12]: 57.6%
% Inhibition [17]: 60.62%
inhibition at 10 µM [13]: 59.4%
DYRK2 inhibitory activity (in words) (structural optimization of lead 12): significantly decreased activity
